Several values for one entry are separate records, joined by “and”; a condition that tells them apart may be missing. Equal values may be shown once.
Species on record: Rattus norvegicus
Type: toxicity, organism-based, Sprague-Dawley
Conditions: in vivo, sc, 24 h, route mini-PUMP - SUBCUTANEOUS, time 1 day, vehicle 100 % SALINE; for ALBUMIN / ALKALINE PHOSPHATASE / ASPARTATE AMINOTRANSFERASE / BLOOD UREA NITROGEN / CARBON DIOXIDE / CHOLESTEROL / CREATINE PHOSPHOKINASE / CREATININE / GLUCOSE / LACTATE DEHYDROGENASE / PHOSPHORUS / POTASSIUM / SODIUM / TOTAL BILIRUBIN / URIC ACID: tissue Plasma
[1] = 0 mg/kg, vehicle control, tissue Blood, dose level Control
[2] = 0 mg/kg, vehicle control, dose level Control
[3] = 0.5 mg/kg, tissue Blood, dose level High
[4] = […], tissue Blood, dose 0.72 mg/Kg, dose level High
[5] = […], dose 0.72 mg/Kg, dose level High

Description: DrugMatrix - Regimen: Single

`CC[C@H](C)[C@H](NC(=O)[C@H](Cc1ccc(O)cc1)NC(=O)[C@@H](NC(=O)[C@H](CCCNC(=N)N)NC(=O)[C@@H](N)CC(=O)O)C(C)C)C(=O)N[C@@H](Cc1cnc[nH]1)C(=O)N1CCC[C@H]1C(=O)N[C@@H](Cc1ccccc1)C(=O)O` [ANGIOTENSIN II] was tested, and the “ABSOLUTE SEGMENTED NEUTROPHIL” value [1] was 1753.5 CELLS/uL, the BASOPHIL [1] was 0.4% and 0% and the EOSINOPHIL [1] was 0.3% and 0.17%. For the same molecule, the “ERYTHROCYTE COUNT” value [1] was 6.25 x10E6/uL and 5.64 x10E6/uL, the HEMATOCRIT [1] was 41.8% and 34.52% and the HEMOGLOBIN [1] was 13.33 G/DL and 12.68 G/DL. The “LEUKOCYTE COUNT” value [1] was 11.55 x10E3/uL and 13 x10E3/uL, the “MEAN CORPUSCULAR HEMOGLOBIN” value [1] was 21.37 pg and 22.5 pg and the “MEAN CORPUSCULAR HEMOGLOBIN CONCENTRATION” value [1] was 31.93 G/DL and 36.78 G/DL. The “MEAN CORPUSCULAR VOLUME” value [1] was 66.93 fL and 61.18 fL, the MONOCYTE [1] was 2.4% and 1.83% and the NEUTROPHIL [1] was 23.4% and 13.5%. The “NUCLEATED RED BLOOD CELLS” value [1] was 0.17 /100WBC, the “PLATELET COUNT” value [1] was 1265.33 x10E3/uL and 679.17 x10E3/uL and the ALBUMIN [2] was 3.63 G/DL and 3.77 G/DL. For the same molecule, the “ALKALINE PHOSPHATASE” value [2] was 385.33 u/L and 291.17 u/L, the “ASPARTATE AMINOTRANSFERASE” value [2] was 79.33 u/L and 74.5 u/L and the “BLOOD UREA NITROGEN” value [2] was 13.33 mg/dL and 15.33 mg/dL. For the same molecule, the “CARBON DIOXIDE” value [2] was 40.67 mmol/L and 30 mmol/L, the CHOLESTEROL [2] was 86.33 mg/dL and 65.33 mg/dL and the “CREATINE PHOSPHOKINASE” value [2] was 190.33 u/L. The CREATININE [2] was 0.4 mg/dL and 0.15 mg/dL, the GLUCOSE [2] was 165.67 mg/dL and 179.83 mg/dL and the “LACTATE DEHYDROGENASE” value [2] was 103.33 u/L and 162.67 u/L. For the same molecule, the PHOSPHORUS [2] was 11.7 mg/dL and 12.2 mg/dL, the POTASSIUM [2] was 5.5 MEQ/L and 5.73 MEQ/L and the SODIUM [2] was 145 MEQ/L and 144.7 MEQ/L. The “TOTAL BILIRUBIN” value [2] was 0.27 mg/dL and 0.15 mg/dL, the “URIC ACID” value [2] was 1 mg/dL and 1.93 mg/dL and the ABSOLUTE BASOPHIL [3] was 13.3 cells/µL. It also gave an ABSOLUTE EOSINOPHIL [3] of 46.7 cells/µL, an ABSOLUTE LYMPHOCYTE [3] of 5400 cells/µL and an ABSOLUTE MONOCYTE [3] of 230 cells/µL. The BASOPHIL [3] was 0.13%, the EOSINOPHIL [3] was 0.6% and the “ERYTHROCYTE COUNT” value [3] was 6.26 x10E6/uL. For the same molecule, the HEMATOCRIT [3] was 42.23%, the HEMOGLOBIN [3] was 13.53 G/DL and the “LEUKOCYTE COUNT” value [3] was 7.88 x10E3/uL. The “MEAN CORPUSCULAR HEMOGLOBIN” value [3] was 21.63 pg, the “MEAN CORPUSCULAR HEMOGLOBIN CONCENTRATION” value [3] was 32.03 G/DL and the “MEAN CORPUSCULAR VOLUME” value [3] was 67.47 fL. For the same molecule, the MONOCYTE [3] was 2.8%, the NEUTROPHIL [3] was 26.93% and the “PLATELET COUNT” value [3] was 1308.33 x10E3/uL. For the same molecule, the ALBUMIN (0.5 mg/kg, dose level High) was 3.93 G/DL, the “ALKALINE PHOSPHATASE” value (0.5 mg/kg, dose level High) was 341.33 u/L and the “ASPARTATE AMINOTRANSFERASE” value (0.5 mg/kg, dose level High) was 74 u/L. For the same molecule, the “BLOOD UREA NITROGEN” value (0.5 mg/kg, dose level High) was 14 mg/dL, the “CARBON DIOXIDE” value (0.5 mg/kg, dose level High) was 42.67 mmol/L and the CHOLESTEROL (0.5 mg/kg, dose level High) was 106.33 mg/dL. For the same molecule, the “CREATINE PHOSPHOKINASE” value (0.5 mg/kg, dose level High) was 299.33 u/L, the CREATININE (0.5 mg/kg, dose level High) was 0.5 mg/dL and the GLUCOSE (0.5 mg/kg, dose level High) was 169.33 mg/dL. The “LACTATE DEHYDROGENASE” value (0.5 mg/kg, dose level High) was 65.33 u/L, the PHOSPHORUS (0.5 mg/kg, dose level High) was 11.73 mg/dL and the POTASSIUM (0.5 mg/kg, dose level High) was 5.2 MEQ/L. The SODIUM (0.5 mg/kg, dose level High) was 146.33 MEQ/L, the “TOTAL BILIRUBIN” value (0.5 mg/kg, dose level High) was 0.2 mg/dL and the “URIC ACID” value (0.5 mg/kg, dose level High) was 0.93 mg/dL. For the same molecule, the “ABSOLUTE EOSINOPHIL” value [4] was 30.33 CELLS/uL, the “ABSOLUTE LYMPHOCYTE” value [4] was 10495 CELLS/uL and the “ABSOLUTE MONOCYTE” value [4] was 212 CELLS/uL. The “ABSOLUTE SEGMENTED NEUTROPHIL” value [4] was 2262.67 CELLS/uL, the BASOPHIL [4] was 0% and the EOSINOPHIL [4] was 0.33%. For the same molecule, the “ERYTHROCYTE COUNT” value [4] was 6.56 x10E6/uL, the HEMATOCRIT [4] was 38.97% and the HEMOGLOBIN [4] was 14.37 G/DL. For the same molecule, the “LEUKOCYTE COUNT” value [4] was 13 x10E3/uL, the “MEAN CORPUSCULAR HEMOGLOBIN” value [4] was 21.9 pg and the “MEAN CORPUSCULAR HEMOGLOBIN CONCENTRATION” value [4] was 36.87 G/DL. The “MEAN CORPUSCULAR VOLUME” value [4] was 59.37 fL, the MONOCYTE [4] was 1.67% and the NEUTROPHIL [4] was 17.67%. The “NUCLEATED RED BLOOD CELLS” value [4] was 0.33 /100WBC, the “PLATELET COUNT” value [4] was 1167.67 x10E3/uL and the ALBUMIN [5] was 4 G/DL. For the same molecule, the “ALKALINE PHOSPHATASE” value [5] was 462 u/L, the “ASPARTATE AMINOTRANSFERASE” value [5] was 98.67 u/L and the “BLOOD UREA NITROGEN” value [5] was 19 mg/dL. For the same molecule, the “CARBON DIOXIDE” value [5] was 32 mmol/L, the CHOLESTEROL [5] was 87 mg/dL and the CREATININE [5] was 0.14 mg/dL. For the same molecule, the GLUCOSE [5] was 171 mg/dL, the “LACTATE DEHYDROGENASE” value [5] was 143.33 u/L and the PHOSPHORUS [5] was 13.13 mg/dL. For the same molecule, the POTASSIUM [5] was 6.48 MEQ/L, the SODIUM [5] was 141.6 MEQ/L and the “TOTAL BILIRUBIN” value [5] was 0.2 mg/dL. For the same molecule, the “URIC ACID” value [5] was 2.37 mg/dL.

From ChEMBL document CHEMBL3885881, “DrugMatrix”
